The subject of series [1] is HepG2 cells. Kind of series: Tertiary screening, Core Library (NBD-TEEPO assay). In kind it is cell-based, human. Particulars: 50 μM compound, 200 μM AA or 300 μM tBHP. The protocol:
The Core Library of Drug Discovery Initiative, the University of Tokyo, includes structural analogs for each compound. Then, secondary screening was also performed for structural analog compounds for each candidate compound in the same manner as Example 13 and the activity values were evaluated.
Specifically, the nine hit compounds, Compound Nos. 7, 19, 39, 48, 52, 64, 73, 78, 80, of the secondary screening had 5, 2, 4, 6, 6, 5, 5, 10, 2 structural analogs, respectively, thus, a total 45 structural analogs were taken. Then, including the original 9 compounds, a total 54 compounds were subjected to tertiary screening, and the activity values were calculated in the same manner.
(§1) For the evaluation of cytotoxicity, 50 μM antioxidant was added to HepG2 cells in DMEM medium (0.5% DMSO), and after incubation at 37° C. for 72 hours, the cell viability was measured. • 4) The activity values of the two-added systems in each of the assay using NBD-TEEPO and the MTT assay were plotted (FIG. 15C and FIG. 16C).

Series [2] deals with HepG2 cells. The series is described as follows: Cytotoxicity evaluation at tertiary screening (MTT, compound alone). The conditions noted are these: 50 μM compound alone, 72 hours. In kind it is cell-based. The procedure: To 1.0×10^4 HepG2 cells, 50 μM compound were added, and cell viability after 72 hours was measured by an MTT assay.
as §1

Series [3] concerns HepG2 cells. The series is described as follows: Secondary screening, Core Library (NBD-TEEPO assay). In kind it is cell-based, human. Particulars: 50 μM compound, 200 μM AA (45 minutes) or 300 μM tBHP (60 minutes); high activity values in both systems. The procedure: In the screening by the cell-based assay method, activity values were determined from the values of fluorescence intensity measured in each screening using AA or tBHP as a reaction initiator, based on the following expression: Activity value=100(AUCSample−AUCBackground)/(AUCControl−AUCBackground) • AUCSample: Area under the curve calculated from the fluorescence intensity for with reaction initiator and with each compound (n=1) • AUCControl: Area under the curve calculated from fluorescence intensity for with reaction initiator and without each compound • AUCBackground: Area under the curve calculated from fluorescence intensity for without reaction initiator and without each compound
For the compounds, 10 mM 100% DMSO solutions (dispensed at 5.0 µL/well) were provided from Drug Discovery Initiative, the University of Tokyo. 495 μL of DMEM medium for measurement was added, and a 1.0% DMSO solution containing 100 μM of the compound was prepared. This solution was dispensed by 80 μL with Biomek NXP into a measuring plate on which cells were seeded in advance. To the test compound (100 μM 1.0% DMSO), 64 μL of DMEM medium (1.25% acetonitrile) containing 12.5 M NBD-TEEPO compound, and 16 μL of PBS in which AA (2000 μM, 5.0% ethanol) or tBHP (3000 μM) was dissolved were manually dispensed. The final concentration was 50 μM test compound and 200 μM AA or 300 μM tBHP in DMEM medium (0.5% DMSO, 0.5% acetonitrile).
The reaction mixture was mixed at 37° C., and the fluorescence intensity at an excitation wavelength of 470 nm and a fluorescence wavelength of 530 nm was measured over time every 3 minutes. The AUC was calculated from the fluorescence intensity for 45 minutes in the AA-added system or 60 minutes in the tBHP-added system, and the activity value of each test compound was calculated according to the expression described herein.

For series [4] the following is noted: not told; cited from earlier work.

Counter-ions that a name gives are not always drawn.

For `COc1cc(NS(C)(=O)=O)ccc1Nc1c2ccc(C)cc2nc2c1[nH]c1ccccc12` [Compound 80, N-(3-Methoxy-4-((3-methyl-1-10H-indolo[3,2-b]quinolin-11-yl)amino)phenyl)methanesulfonamide], the “lipid peroxidation inhibitory effects” value in series [1] is given as “highest”. The cytotoxicity entry in series [2] is given as “extremely high”. In series [3], the “activity values (lipid peroxidation inhibition) in both AA-added and tBHP-added systems” value is “hit compounds”.

On to `CN1CC[C@]2(C)c3cc(O)ccc3N(C)[C@H]12` [Compound W, (−)-eseroline fumarate], for which the “permeability to blood-retinal barrier (BRB)” value in series [4] is on record as “highly permeable”.

Values taken from patent publication US12306164B2, “Therapeutic drug for lipid-peroxidation-induced diseases and screening method for therapeutic drugs for lipid-peroxidation-induced diseases” (FUSO PHARMACEUTICAL INDUSTRIES, LTD., priority 2017, dated 2025).
